The record followed here is paper PMC4338435, “Design and Application of a Novel High-throughput Screening Technique for 1-Deoxynojirimycin” (Scientific Reports, 2015).

In assay [1] the target is T1, LacS (Saccharolobus solfataricus, UniProt P22498).
T1 sequence (P22498 1-489): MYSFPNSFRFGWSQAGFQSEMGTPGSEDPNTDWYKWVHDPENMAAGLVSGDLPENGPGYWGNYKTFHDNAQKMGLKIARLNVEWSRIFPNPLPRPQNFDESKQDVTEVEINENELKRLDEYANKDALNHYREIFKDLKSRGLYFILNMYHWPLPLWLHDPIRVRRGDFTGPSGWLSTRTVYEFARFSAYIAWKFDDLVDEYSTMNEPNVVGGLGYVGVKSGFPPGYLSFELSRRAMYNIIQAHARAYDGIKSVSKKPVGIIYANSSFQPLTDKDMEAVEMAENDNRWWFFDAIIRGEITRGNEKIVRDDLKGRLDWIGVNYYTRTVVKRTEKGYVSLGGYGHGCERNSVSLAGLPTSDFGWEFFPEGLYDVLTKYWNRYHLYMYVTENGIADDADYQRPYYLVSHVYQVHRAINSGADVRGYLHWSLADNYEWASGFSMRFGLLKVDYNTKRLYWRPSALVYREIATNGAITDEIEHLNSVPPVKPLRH
In words: inhibition of oNPG hydrolysis, A420. Format: biochemical. Also on record: recombinant full-length LacS; purified for in vitro assay; lacS also integrated in E. coli BW25113 (BWLacS). The note with it: buffer Z, oNPG substrate, 37°C, 10 min.

The target of assay [2] is T1, LacS. In words: blue-white colony assay on LB agar, E. coli BWLacS. It is filed as cell-based. Also noted: lacS also integrated in E. coli BW25113 (BWLacS). The note with it: 40 μg/mL X-GAL, 1 mM L-arabinose.

With `OC[C@H]1NC[C@H](O)[C@@H](O)[C@@H]1O` [1-DNJ], the LacS inhibition rate on LacS [1] is 1-DNJ was found able to inhibit LacS on its o-nitrophenyl-β-D-galactopyranoside (oNPG) hydrolysis activity.
`OC[C@H]1NC(O)[C@@H](O)[C@@H](O)[C@@H]1O` (stereo partly drawn) [MJ]: the LacS inhibition rate result on LacS [1] (unstable MJ tested as reaction mixture of purified GutB1 with ADM and NAD+, not isolated) is given as “MJ was also found to inhibit the activity of LacS (Figure S3)”.
For the molecule `OC[C@H]1O[C@@H](Oc2c[nH]c3ccc(Br)c(Cl)c23)[C@H](O)[C@@H](O)[C@H]1O` [X-GAL], on LacS [2], the “blue-white colony assay on LB agar, E. coli BWLacS” value is “inhibitory effect of 1-DNJ on the LacS activity toward 5-bromo-4-chloro-3-indolyl β-D-galactopyranoside (X-GAL)”.
